Measured values taken from the supplement of paper PMC10307832.

What was measured:
Experiment in all cases: relative viability (nuclei count vs DMSO), 5 days (fraction); higher = more cells survive
NCI-H358 = tested on: NCI-H358
How it was run: (§1)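 For relative viability, nuclei counts in treated wells were divided by those in vehicle wells. Lung cancer cell lines had been pin-tool dosed in 1536-well plates the day after seeding and cultured for 5 days, then fixed and stained in one step (final 0.05% Triton X-100, 1% formaldehyde, 1 ug/ml Hoechst) and imaged at 4×. Doses were one drug alone or a fixed anchor-drug dose plus five library-drug doses (not always all listed) in √10 steps, and values are duplicate-plate medians.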

NCI-H1915 = tested on: NCI-H1915
How it was run: as §1

LC-2-ad = tested on: LC-2-ad
How it was run: as §1

SW 1573 = tested on: SW 1573
How it was run: as §1

PC-3 [JPC-3] = tested on: PC-3 [JPC-3]
How it was run: as §1

RERF-LC-KJ = tested on: RERF-LC-KJ
How it was run: as §1

HOP-62 = tested on: HOP-62
How it was run: as §1

NCI-H1792 = tested on: NCI-H1792
How it was run: as §1

LXF-289 = tested on: LXF-289
How it was run: as §1

SK-LU-1 = tested on: SK-LU-1
How it was run: as §1

HCC-15 = tested on: HCC-15
How it was run: as §1

NCI-H2347 = tested on: NCI-H2347
How it was run: as §1

NCI-H2126 = tested on: NCI-H2126
How it was run: as §1

NCI-H1755 = tested on: NCI-H1755
How it was run: as §1

HCC-78 = tested on: HCC-78
How it was run: as §1

NCI-H647 = tested on: NCI-H647
How it was run: as §1

A-427 = tested on: A-427
How it was run: as §1

NCI-H1734 = tested on: NCI-H1734
How it was run: as §1

NCI-H522 = tested on: NCI-H522
How it was run: as §1

NCI-H1975 = tested on: NCI-H1975
How it was run: as §1

NCI-H2342 = tested on: NCI-H2342
How it was run: as §1

SMILES: O=c1cc(-c2cccc3c2Sc2ccccc2S3)oc(N2CCOCC2)c1 + Nc1ncn([C@H]2C[C@H](O)[C@@H](CO)O2)c(=O)n1 [Decitabine] (partner 2 µM)
- relative viability (NCI-H358; first compound 0.08 µM): 0.199
- relative viability (NCI-H358; first compound 0.253 µM): 0.205
- relative viability (NCI-H358; first compound 0.8 µM): 0.2
- relative viability (NCI-H358; first compound 2.53 µM): 0.25
- relative viability (NCI-H358; first compound 8 µM): 0.214
- relative viability (NCI-H1915; first compound 0.08 µM): 0.259
- relative viability (NCI-H1915; first compound 0.253 µM): 0.277
- relative viability (NCI-H1915; first compound 0.8 µM): 0.271
- relative viability (NCI-H1915; first compound 2.53 µM): 0.259
- relative viability (NCI-H1915; first compound 8 µM): 0.289
- relative viability (LC-2-ad; first compound 0.08 µM): 0.786
- relative viability (LC-2-ad; first compound 0.253 µM): 0.928
- relative viability (LC-2-ad; first compound 0.8 µM): 0.905
- relative viability (LC-2-ad; first compound 2.53 µM): 0.761
- relative viability (LC-2-ad; first compound 8 µM): 0.793
- relative viability (SW 1573; first compound 0.08 µM): 0.561
- relative viability (SW 1573; first compound 0.253 µM): 0.575
- relative viability (SW 1573; first compound 0.8 µM): 0.598
- relative viability (SW 1573; first compound 2.53 µM): 0.448
- relative viability (SW 1573; first compound 8 µM): 0.596
- relative viability (PC-3 [JPC-3]; first compound 0.08 µM): 0.733
- relative viability (PC-3 [JPC-3]; first compound 0.253 µM): 0.791
- relative viability (PC-3 [JPC-3]; first compound 0.8 µM): 0.838
- relative viability (PC-3 [JPC-3]; first compound 2.53 µM): 0.79
- relative viability (PC-3 [JPC-3]; first compound 8 µM): 0.884
- relative viability (RERF-LC-KJ; first compound 0.08 µM): 0.643
- relative viability (RERF-LC-KJ; first compound 0.253 µM): 0.818
- relative viability (RERF-LC-KJ; first compound 0.8 µM): 0.709
- relative viability (RERF-LC-KJ; first compound 2.53 µM): 0.655
- relative viability (RERF-LC-KJ; first compound 8 µM): 0.676
- relative viability (HOP-62; first compound 0.08 µM): 0.206
- relative viability (HOP-62; first compound 0.253 µM): 0.221
- relative viability (HOP-62; first compound 0.8 µM): 0.187
- relative viability (HOP-62; first compound 2.53 µM): 0.228
- relative viability (HOP-62; first compound 8 µM): 0.234
- relative viability (NCI-H1792; first compound 0.08 µM): 0.531
- relative viability (NCI-H1792; first compound 0.253 µM): 0.828
- relative viability (NCI-H1792; first compound 0.8 µM): 0.45
- relative viability (NCI-H1792; first compound 2.53 µM): 0.723
- relative viability (NCI-H1792; first compound 8 µM): 0.575
- relative viability (LXF-289; first compound 0.08 µM): 0.389
- relative viability (LXF-289; first compound 0.253 µM): 0.465
- relative viability (LXF-289; first compound 0.8 µM): 0.42
- relative viability (LXF-289; first compound 2.53 µM): 0.439
- relative viability (LXF-289; first compound 8 µM): 0.416
- relative viability (SK-LU-1; first compound 0.08 µM): 0.678
- relative viability (SK-LU-1; first compound 0.253 µM): 0.813
- relative viability (SK-LU-1; first compound 0.8 µM): 0.755
- relative viability (SK-LU-1; first compound 2.53 µM): 0.643
- relative viability (SK-LU-1; first compound 8 µM): 0.648
- relative viability (HCC-15; first compound 0.08 µM): 0.677
- relative viability (HCC-15; first compound 0.253 µM): 0.807
- relative viability (HCC-15; first compound 0.8 µM): 0.64
- relative viability (HCC-15; first compound 2.53 µM): 0.589
- relative viability (HCC-15; first compound 8 µM): 0.579
- relative viability (NCI-H2347; first compound 0.08 µM): 0.606
- relative viability (NCI-H2347; first compound 0.253 µM): 0.663
- relative viability (NCI-H2347; first compound 0.8 µM): 0.627
- relative viability (NCI-H2347; first compound 2.53 µM): 0.616
- relative viability (NCI-H2347; first compound 8 µM): 0.629
- relative viability (NCI-H2126; first compound 0.08 µM): 0.583
- relative viability (NCI-H2126; first compound 0.253 µM): 0.581
- relative viability (NCI-H2126; first compound 0.8 µM): 0.612
- relative viability (NCI-H2126; first compound 2.53 µM): 0.534
- relative viability (NCI-H2126; first compound 8 µM): 0.54
- relative viability (NCI-H1755; first compound 0.08 µM): 0.716
- relative viability (NCI-H1755; first compound 0.253 µM): 0.792
- relative viability (NCI-H1755; first compound 0.8 µM): 0.762
- relative viability (NCI-H1755; first compound 2.53 µM): 0.688
- relative viability (NCI-H1755; first compound 8 µM): 0.79
- relative viability (HCC-78; first compound 0.08 µM): 0.653
- relative viability (HCC-78; first compound 0.253 µM): 0.906
- relative viability (HCC-78; first compound 0.8 µM): 0.647
- relative viability (HCC-78; first compound 2.53 µM): 0.664
- relative viability (HCC-78; first compound 8 µM): 0.74
- relative viability (NCI-H647; first compound 0.08 µM): 0.428
- relative viability (NCI-H647; first compound 0.253 µM): 0.534
- relative viability (NCI-H647; first compound 0.8 µM): 0.414
- relative viability (NCI-H647; first compound 2.53 µM): 0.403
- relative viability (NCI-H647; first compound 8 µM): 0.45
- relative viability (A-427; first compound 0.08 µM): 0.448
- relative viability (A-427; first compound 0.253 µM): 0.6
- relative viability (A-427; first compound 0.8 µM): 0.547
- relative viability (A-427; first compound 2.53 µM): 0.573
- relative viability (A-427; first compound 8 µM): 0.548
- relative viability (NCI-H1734; first compound 0.08 µM): 0.452
- relative viability (NCI-H1734; first compound 0.253 µM): 0.574
- relative viability (NCI-H1734; first compound 0.8 µM): 0.528
- relative viability (NCI-H1734; first compound 8 µM): 0.512
- relative viability (NCI-H522; first compound 0.08 µM): 0.693
- relative viability (NCI-H522; first compound 0.253 µM): 0.743
- relative viability (NCI-H522; first compound 0.8 µM): 0.689
- relative viability (NCI-H522; first compound 2.53 µM): 0.66
- relative viability (NCI-H522; first compound 8 µM): 0.796
- relative viability (NCI-H1975; first compound 0.08 µM): 0.366
- relative viability (NCI-H1975; first compound 0.253 µM): 0.36
- relative viability (NCI-H1975; first compound 0.8 µM): 0.348
- relative viability (NCI-H1975; first compound 2.53 µM): 0.38
- relative viability (NCI-H1975; first compound 8 µM): 0.381
- relative viability (NCI-H2342; first compound 0.08 µM): 0.662
- relative viability (NCI-H2342; first compound 0.253 µM): 0.794
- relative viability (NCI-H2342; first compound 0.8 µM): 0.734
- relative viability (NCI-H2342; first compound 2.53 µM): 0.721
- relative viability (NCI-H2342; first compound 8 µM): 0.77
